Test results: ChEMBL document CHEMBL2073912, “Biochemical basis of polyvalency as a strategy for enhancing the efficacy of P-glycoprotein (ABCB1) modulators: stipiamide homodimers separated with defined-length spacers reverse drug efflux with greater efficacy” (Biochemistry, 2004)

Target: ATP-dependent translocase ABCB1 (Homo sapiens, UniProt P08183)
Test: TP_TRANSPORTER: increase in bodipy-FL-prazosin intracellular accumulation in MDR1-expressing NIH-3T3 cells
Format: functional, cell-based
Settings: mouse, nih3t3

Chain of ATP-dependent translocase ABCB1 (P08183 whole entry): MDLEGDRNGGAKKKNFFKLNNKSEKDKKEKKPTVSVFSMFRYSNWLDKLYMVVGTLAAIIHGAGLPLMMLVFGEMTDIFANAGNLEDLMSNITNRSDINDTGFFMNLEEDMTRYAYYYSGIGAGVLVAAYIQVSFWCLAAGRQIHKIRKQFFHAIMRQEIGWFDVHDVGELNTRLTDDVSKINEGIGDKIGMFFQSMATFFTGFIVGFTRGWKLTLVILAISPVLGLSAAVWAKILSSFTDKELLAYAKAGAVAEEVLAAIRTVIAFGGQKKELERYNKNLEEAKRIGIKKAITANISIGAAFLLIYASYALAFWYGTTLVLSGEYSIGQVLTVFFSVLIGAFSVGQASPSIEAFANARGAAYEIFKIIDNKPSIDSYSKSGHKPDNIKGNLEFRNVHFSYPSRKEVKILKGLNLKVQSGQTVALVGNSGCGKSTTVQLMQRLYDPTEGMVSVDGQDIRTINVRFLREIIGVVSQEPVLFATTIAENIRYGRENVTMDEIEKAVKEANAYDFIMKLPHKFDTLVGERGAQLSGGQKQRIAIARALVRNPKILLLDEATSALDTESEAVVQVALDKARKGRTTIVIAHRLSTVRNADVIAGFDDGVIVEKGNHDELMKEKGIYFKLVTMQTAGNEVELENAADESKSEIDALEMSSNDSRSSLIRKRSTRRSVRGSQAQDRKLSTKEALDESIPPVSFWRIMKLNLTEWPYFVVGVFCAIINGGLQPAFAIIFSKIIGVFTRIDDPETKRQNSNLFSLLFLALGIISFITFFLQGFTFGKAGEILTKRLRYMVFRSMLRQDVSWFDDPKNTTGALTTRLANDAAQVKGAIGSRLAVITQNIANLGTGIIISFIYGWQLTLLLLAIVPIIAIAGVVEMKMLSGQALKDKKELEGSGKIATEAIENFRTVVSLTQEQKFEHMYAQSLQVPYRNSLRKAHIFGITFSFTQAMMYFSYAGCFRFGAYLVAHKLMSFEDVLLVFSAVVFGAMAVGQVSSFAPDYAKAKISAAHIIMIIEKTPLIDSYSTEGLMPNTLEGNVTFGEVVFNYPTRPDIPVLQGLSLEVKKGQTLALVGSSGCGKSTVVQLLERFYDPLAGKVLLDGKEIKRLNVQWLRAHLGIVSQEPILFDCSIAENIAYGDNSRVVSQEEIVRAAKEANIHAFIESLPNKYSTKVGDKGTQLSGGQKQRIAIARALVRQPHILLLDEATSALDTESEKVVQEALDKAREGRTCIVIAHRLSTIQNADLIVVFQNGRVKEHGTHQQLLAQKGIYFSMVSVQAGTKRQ

Structure (SMILES) | Activity
C/C(=C\CCC#C/C=C/C(C)C(O)/C(C)=C/CCc1cccc2ccccc12)C(=O)NCCOCCOCCOCCOCCOCCOCCOCCOCCOCCOCCOCCOCNC(=O)/C(C)=C/CCC#C/C=C/C(C)C(O)/C(C)=C/CCc1ccc2ccccc2c1 (stereo unspecified) | inhibitor [+]
C/C(=C\CCC#C/C=C/C(C)C(O)/C(C)=C/CCc1cccc2ccccc12)C(=O)NCCOCCOCCOCCOCCOCCO (stereo unspecified) [STIPIAMIDE MONOMER] | is not an inhibitor [-]
C/C(=C\CCC#C/C=C/C(C)C(O)/C(C)=C/CCc1ccc2ccccc2c1)C(=O)NCNC(=O)/C(C)=C/CCC#C/C=C/C(C)C(O)/C(C)=C/CCc1cccc2ccccc12 (stereo unspecified) | is not an inhibitor [-]
C/C(=C\CCC#C/C=C/C(C)C(O)/C(C)=C/CCc1cccc2ccccc12)C(=O)NCCOCCOCNC(=O)/C(C)=C/CCC#C/C=C/C(C)C(O)/C(C)=C/CCc1ccc2ccccc2c1 (stereo unspecified) | is not an inhibitor [-]

Further lines, results first:

Activity | Structure (SMILES)
inhibitor [+] | C/C(=C\CCC#C/C=C/C(C)C(O)/C(C)=C/CCc1ccc2ccccc2c1)C(=O)NCCOCCOCCOCCOCCOCCNC(=O)/C(C)=C/CCC#C/C=C/C(C)C(O)/C(C)=C/CCc1cccc2ccccc12 (stereo unspecified)
inhibitor [+] | C/C(=C\CCC#C/C=C/C(C)C(O)/C(C)=C/CCc1cccc2ccccc12)C(=O)NCCOCCOCCOCCOCCOCCOCCOCCOCNC(=O)/C(C)=C/CCC#C/C=C/C(C)C(O)/C(C)=C/CCc1ccc2ccccc2c1 (stereo unspecified)
